The values that follow come from article PMC7070443, “New Hybrid Pyrazole and Imidazopyrazole Antinflammatory Agents Able to Reduce ROS Production in Different Biological Targets” (Molecules, 2020).

The structures appear in SMILES notation.

In series [1] the test system is human platelets. The experiment in a line: Platelet aggregation inhibition (Born's method, thrombin-stimulated washed platelets). The format is cell-based. The following applies: Platelet, 0.1 U/mL thrombin, mean +/- SD, at least six experiments in duplicate. The method, then:
(§1) Freshly drawn venous blood from healthy volunteers of the “Centro Trasfusionale, Ospedale San Martino” in Genoa was collected into 130 mM aqueous trisodium citrate anticoagulant solution (9:1). The donors claimed to have not taken drugs known to interfere with platelet function during two weeks prior to blood collection and gave their informed consent. Washed platelets were prepared centrifuging whole blood at 100× g for 20 min. The obtained platelet-rich plasma was then centrifuged at 1100× g for 15 min. Pellet was washed once with pH 5.2 ACD solution (75 mM trisodium citrate, 42 mM citric acid and 136 mM glucose), centrifuged at 1100× g for 15 min and then re-suspended in pH 7.4 Hepes buffer (145 mM NaCl, 5 mM KCl, 1 mM MgSO4, 10 mM glucose, 10 mM HEPES).
Platelet aggregation was performed in a Bio-Data Aggregometer (Bio-Data Corporation, Horsham, PA, USA) according to Born’s method and quantified by the light transmission reached within 6 min at 37 °C. Briefly, washed platelets (3.0 × 10^8/mL) were pre-incubated for 3 min at 37 °C with saline, compound 4 or 5 before the addition of 0.1 U/mL thrombin. The IC50 values were calculated as above detailed.

Series [2] has as its system human platelets. Description: ROS production inhibition in thrombin-stimulated washed platelets (DCFH-DA, flow cytometry). The format is cell-based. The following applies: for IC50: washed human platelets, 0.1 U/mL thrombin, DCFH-DA, mean +/- SD, at least six experiments in duplicate; for activity towards ROS production in platelets (in words): human platelets, thrombin stimulated. How it is done: as §1
ROS production was quantified as previously reported by DCFH-DA, a ROS-sensitive probe that yields upon oxidation the fluorescent adduct DCF that is trapped inside the cells. Briefly, washed platelets (1.0 × 10^8/mL), pre-incubated with saline, compounds 4 or 5, for 15 min at 37 °C, were stimulated by 0.1 U/mL thrombin. Incubation was stopped by cooling samples in ice bath and then samples were immediately analyzed in a Merck Millipore Bioscience Guava easyCyte flow cytometer (Merk Millipore, Burlington, MA, USA). The reported IC50 value is the molar concentration of the compound able to obtain 50% inhibition of the […] induced by the agonist and is calculated by the percentage of inhibition that is the inhibition of the […] measured in the presence of the agent compared with that measured in a control sample containing saline, carried out under the same conditions.
In general terms: In flow cytometry, cells or beads pass a laser one at a time.

Series [3] has as its system human neutrophils. The experiment in a line: Flow cytometric evaluation of ROS production in fMLP-activated neutrophils (DCFH-DA). The format is cell-based. The following applies: for inhibition at 10 µM: Homo sapiens, Neutrophil, DCFH-DA method, read-out: ROS production inhibition percentage; for activity towards ROS production in neutrophils (in words): data not shown. The text has this: Heparinized (heparin 10 U/mL Vister, PfizerItalia, Borgo San Michele, Latina, Italy) venous blood was obtained from healthy male volunteers after written informed consent. Neutrophils were isolated by dextran sedimentation (Dextran 70.000 Plander, Fresenius Kabi Italia, Verona, Italy), and subsequent centrifugation on a Ficoll-Hypaque density gradient (Lympholyte-I from Cedarlane Laboratories Ltd. Hornby, ON, Canada), as described. Contaminating erythrocytes were removed by hypotonic lysis. Neutrophils were washed and resuspended in Hanks’balanced salt solution (HBSS; EuroCLone, Wetherby West, Yorkshire, UK) mixed with Dulbecco’s PBS (EuroClone; HBBS:PBS. Final cell suspensions contained 97% or more neutrophils and more than 98% viable cells, as evaluated by a trypan blue test kit (Sigma Aldrich).
Flow cytometric analysis of neutrophil oxidative metabolism was carried out according to literature method. Briefly, neutrophils, were cultured for 1 h with or without 4d and 5d at different concentration. Thereafter, neutrophils were pre-treated with 2′-7′-dichlorofluorescein-diacetate (DCFH-DA; Sigma, Milan, Italy) ([…]), During the incubation time, DCFH-DA entered into the cells, and it was cleaved by intracellular esterases to give non-fluorescence DCFH trapped within the cells. After washing in PBS, the cells were incubated for 15 min at room temperature in the presence or absence of N-formyl-L-methionin-L-leucyl-L-phenylalanine (fMLP; Sigma, Milan, Italy) ([…]) for 30 min at 37 °C. During this period, intracellular ROS oxidized DCFH to give a green fluorescence […]. The reaction was stopped by keeping the samples on ice before being analyzed by flow cytometry (FC500, Beckman Coulter).

The nature of series [4]: Cell vitality by propidium iodide (PI) method in neutrophils. The format is cell-based. The following applies: human, human neutrophils, PI method. The method, then: (§2) In the same test, cell vitality in presence of 4d (10 µM) was assessed by propidium iodide (PI) method at the end of the incubation time. In detail, in the same tubes we added PI staining solution (10 μg/mL, Invitrogen ThermoFisher Scientific, Waltham, MA, USA) to detect dead cells. PI is excited at 488 nm and, emits at a maximum wavelength of 617 nm. Because of these spectral characteristics, PI can be used in combination with other fluorochromes excited at 488 nm such as fluorescein isothiocyanate (FITC). Auto-fluorescence levels of sample were measured and subtracted from each analysis. Data were expressed as mean fluorescence intensity ((MFI), compared with the expression on cells stimulated with control medium alone (defined as 100%)).

The test system of series [5] is human neutrophils. Described as above. The format is cell-based. The following applies: 10 µM. The method, then:
as §2

In a further series the target is T1, PDE4B2 (Homo sapiens, UniProt Q07343).
T1 construct: host or cells: Spodoptera frugiperda (Sf9), baculovirus
T1 sequence (Q07343 1-564 isoform Q07343-2): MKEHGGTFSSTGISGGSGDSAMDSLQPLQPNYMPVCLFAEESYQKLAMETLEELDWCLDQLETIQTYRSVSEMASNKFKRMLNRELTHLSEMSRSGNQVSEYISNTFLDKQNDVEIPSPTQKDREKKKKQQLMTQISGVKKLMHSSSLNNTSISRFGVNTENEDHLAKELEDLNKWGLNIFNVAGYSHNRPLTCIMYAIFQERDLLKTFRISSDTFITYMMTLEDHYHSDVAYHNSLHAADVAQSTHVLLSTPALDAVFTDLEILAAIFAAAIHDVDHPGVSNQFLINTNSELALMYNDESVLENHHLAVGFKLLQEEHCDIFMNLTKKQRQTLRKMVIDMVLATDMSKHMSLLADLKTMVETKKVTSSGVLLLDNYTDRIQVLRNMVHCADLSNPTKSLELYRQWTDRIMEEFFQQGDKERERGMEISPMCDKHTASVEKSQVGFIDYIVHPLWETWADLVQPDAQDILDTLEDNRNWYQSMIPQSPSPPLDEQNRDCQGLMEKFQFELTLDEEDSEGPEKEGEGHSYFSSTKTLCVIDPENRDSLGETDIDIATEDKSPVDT
The experiment in a line: PDE4 enzymatic assay (IMAP fluorescence polarisation). The format is biochemical. The following applies: for inhibition at 10 µM: in duplicate, read-out: inhibition of PDE4B2, preliminary test; for IC50: human recombinant enzyme. How it is done:
(§3) PDE4 tests were performed by Scottish Biomedical Drug Discovery (Scottish, Biomedical Drug Discovery, Glasgow, UK) using human recombinant enzyme obtained from Spodoptera frugiperda (Sf9) cells using a baculovirus expression system (PDE enzyme at 0.5 U/mL in 20 mM Tris.HCl pH 7.4) as previously reported. IMAP technology is based on the high affinity binding of phosphate by immobilized metal coordination complexes on nanoparticles. The binding reagent complexes with phosphate groups on nucleotide monophosphate generated from cyclic nucleotides ([…]) through phosphodiesterases. With fluorescence polarisation detection, binding causes a change in the rate of the molecular motion of the phosphate bearing molecule, and results in an increase in the fluorescence polarization value observed for the fluorescent label attached to the substrate.
(§4) Title compounds 4d and 5d were solved in DMSO at 10^−2 M concentration and then diluted with water to the final suitable concentrations. All our subsequent assays were performed in 3% DMSO (final). All the compounds were tested preliminary at 10 µM concentration, in duplicate.
(§5) In all the experiments, Rolipram as reference compound (at 10 μM for PDE4B2 and 1 μM for PDE4D3) was tested at nine concentrations, in duplicate, to obtain an inhibition curve in order to validate this experiment.
(§6) Being inhibition >50%, 4d and 5d have been further tested in the same assay at five different concentrations (5 × 10^−8–10^−4 M) and IC50 values were determined by nonlinear regression analysis of the inhibition curve, using Hill equation curve fitting (Graph Pad Prism software, version 5.0a).
(In general: Fluorescence polarisation rises when a labelled molecule tumbles more slowly, as on binding a larger partner.)

Series [6] deals with T2, PDE4D3 (Homo sapiens, UniProt Q08499).
T2 construct: host or cells: Spodoptera frugiperda (Sf9), baculovirus
T2 sequence (Q08499 1-673 isoform Q08499-2): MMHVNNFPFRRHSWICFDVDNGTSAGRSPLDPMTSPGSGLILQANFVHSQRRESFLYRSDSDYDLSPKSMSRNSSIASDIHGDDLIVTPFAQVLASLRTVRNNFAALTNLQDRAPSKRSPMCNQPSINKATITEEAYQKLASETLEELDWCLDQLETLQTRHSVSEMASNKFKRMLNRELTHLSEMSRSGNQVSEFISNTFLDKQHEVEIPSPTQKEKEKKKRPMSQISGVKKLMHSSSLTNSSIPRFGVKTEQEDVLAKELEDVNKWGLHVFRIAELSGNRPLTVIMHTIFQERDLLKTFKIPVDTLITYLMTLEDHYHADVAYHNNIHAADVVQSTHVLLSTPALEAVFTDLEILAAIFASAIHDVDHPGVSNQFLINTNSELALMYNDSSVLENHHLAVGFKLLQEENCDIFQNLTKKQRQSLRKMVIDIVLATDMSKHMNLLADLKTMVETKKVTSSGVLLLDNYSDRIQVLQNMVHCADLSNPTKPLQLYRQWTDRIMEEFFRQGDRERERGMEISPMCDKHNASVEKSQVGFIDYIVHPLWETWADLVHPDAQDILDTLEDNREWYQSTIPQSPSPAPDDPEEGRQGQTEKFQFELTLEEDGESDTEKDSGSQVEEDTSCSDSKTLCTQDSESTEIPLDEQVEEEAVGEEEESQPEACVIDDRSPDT
The description is as above. The format is biochemical. The following applies: for inhibition at 10 µM: in duplicate, read-out: inhibition of PDE4D3, preliminary test; for IC50: human recombinant enzyme. The method, then:
as §3, §4, §5, §6

Another series deals with PDE1. Description: Preliminary PDE selectivity evaluation. The following applies: 10 µM; data not shown. The format is biochemical.
The target of another series is PDE2 (Homo sapiens, UniProt O00408). Description: Preliminary PDE selectivity evaluation. The format is biochemical. The following applies: 10 µM; data not shown.
PDE2, sequence (O00408 whole entry): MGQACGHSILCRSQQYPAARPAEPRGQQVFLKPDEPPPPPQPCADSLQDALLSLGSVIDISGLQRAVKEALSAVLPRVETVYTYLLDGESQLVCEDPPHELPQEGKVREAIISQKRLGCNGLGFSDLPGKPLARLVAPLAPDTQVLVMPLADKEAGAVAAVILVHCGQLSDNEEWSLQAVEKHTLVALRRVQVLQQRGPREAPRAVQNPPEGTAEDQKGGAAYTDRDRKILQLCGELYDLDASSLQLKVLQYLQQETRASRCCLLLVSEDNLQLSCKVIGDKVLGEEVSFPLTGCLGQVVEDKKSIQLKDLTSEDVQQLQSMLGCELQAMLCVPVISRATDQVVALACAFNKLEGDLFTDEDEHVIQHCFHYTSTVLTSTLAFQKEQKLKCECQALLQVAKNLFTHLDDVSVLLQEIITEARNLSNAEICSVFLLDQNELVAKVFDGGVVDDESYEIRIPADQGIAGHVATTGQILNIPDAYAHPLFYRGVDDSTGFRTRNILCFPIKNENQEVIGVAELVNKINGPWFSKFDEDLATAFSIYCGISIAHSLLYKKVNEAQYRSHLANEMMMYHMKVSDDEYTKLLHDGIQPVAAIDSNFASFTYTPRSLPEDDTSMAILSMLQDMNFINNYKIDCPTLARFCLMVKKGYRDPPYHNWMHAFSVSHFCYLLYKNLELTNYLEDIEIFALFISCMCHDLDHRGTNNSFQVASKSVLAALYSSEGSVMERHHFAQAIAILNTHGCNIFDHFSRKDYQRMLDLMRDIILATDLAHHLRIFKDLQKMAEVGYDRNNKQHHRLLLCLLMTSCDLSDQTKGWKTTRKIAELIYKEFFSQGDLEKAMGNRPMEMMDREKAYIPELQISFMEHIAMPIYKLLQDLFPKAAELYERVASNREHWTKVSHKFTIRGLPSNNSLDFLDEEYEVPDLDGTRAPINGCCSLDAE
The next series concerns PDE3. Description: Preliminary PDE selectivity evaluation. The format is biochemical. The following applies: 10 µM; data not shown.
The next series deals with PDE5 (Homo sapiens, UniProt O76074). The experiment in a line: Preliminary PDE selectivity evaluation. The format is biochemical. The following applies: 10 µM; data not shown.
A further series relates to PDE7. Description: Preliminary PDE selectivity evaluation. The format is biochemical. The following applies: 10 µM; data not shown.
Series [7] has as its system human neutrophils. The experiment in a line: Neutrophil chemotaxis inhibition (fMLP stimulated). The format is cell-based. The following applies: data not shown.
Series [8] concerns PDE4D3. The following applies: Figure 2; cited from earlier work.

For the molecule `COc1ccc(/C=N/NC(=O)c2cnn(CC(O)c3ccccc3)c2N)cc1OC1CCCC1` (centres unmarked) [4d, (E)-5-Amino-N′-(3-(cyclopentyloxy)-4-methoxybenzylidene)-1-(2-hydroxy-2-phenylethyl)-1H-pyrazole-4-carbohydrazide], the IC50 (as a rule, the midpoint of a concentration-inhibition curve) is 29.8 ± 3.7 µM in the series on human platelets [1]; 40 µM in the series on human platelets [2] (Homo sapiens, Platelet); 38.3 ± 2.8 µM in the series on human platelets [2]; 550 nM on PDE4B2; 1050 nM at PDE4D3 [6]. Besides, the inhibition (in general, the drop in the measured response relative to a control, in per cent) at 10 µM is 68% in the series on human neutrophils [3], greater than 50% at PDE4B2 and greater than 50% at PDE4D3 [6]. For the same molecule, the viability (as a rule, a per cent measure of how many cells are alive, often set against a control) at 10 µM in series [4] is greater than 95%. Further, in the series on human neutrophils [5], the “cytotoxic action (PI method)” value is on record as “no cytotoxic action”. For the same molecule, the “inhibition of PDE1” value with PDE1 was “no inhibition”. Also, the “inhibition of PDE2” value against PDE2 is “no inhibition”. In addition, the “inhibition of PDE3” value with PDE3 is “no inhibition”. Moreover, the “inhibition of PDE5” value against PDE5 is “no inhibition”. The “inhibition of PDE7” value in the series with PDE7 was “no inhibition”. For the same molecule, the chemotaxis inhibition entry with human neutrophils [7] was “very low or absent”.

In the case of `COc1ccc(/C=N/NC(=O)c2cnn3c2NC(c2ccccc2)C3)cc1OC1CCCC1` (centres unmarked) [5d, (E)-N′-(3-(cyclopentyloxy)-4-methoxybenzylidene)-2-phenyl-2,3-dihydro-1H-imidazo[1,2-b]pyrazole-7-carbohydrazide], the IC50 stood at 71 ± 6.8 µM with human platelets [1]; 70.6 ± 7.4 µM in the series with human platelets [2] (Homo sapiens, Platelet); 550 nM at PDE4B2; 1220 nM at PDE4D3 [6]. Besides, the inhibition at 10 µM was 63% in the series on human neutrophils [3], greater than 50% at PDE4B2 and greater than 50% on PDE4D3 [6]. In addition, the “cytotoxic action (PI method)” value with human neutrophils [5] is on record as “no cytotoxic action”. The chemotaxis inhibition result in the series with human neutrophils [7] is “very low or absent”.

Take `COc1ccc(/C=N/OCC(O)CN2CC(C)OC(C)C2)cc1OC1CCCC1` (centres unmarked) [GEBR-4a]: in the series with PDE4D3 [8], the IC50 was 2.8 µM.

`COc1ccc(-c2ccn(CC(O)CN3CCOCC3)n2)cc1OC1CCCC1` (centres unmarked) [GEBR-54]: the IC50 with PDE4D3 [8] was 7.6 µM.

Take `NNC(=O)c1cnn(CC(O)c2ccccc2)c1N` (centres unmarked) [compound 7, 5-Amino-1-(2-hydroxy-2-phenylethyl)-1H-pyrazole-4-carbohydrazide]: the melting point (commonly the temperature, or range, at which the solid turns liquid) fell in the range of 183 to 184 °C. Also, the “activity towards ROS production in platelets (in words)” value in the series on human platelets [2] is “completely inactive”. In the series with human neutrophils [3], the “activity towards ROS production in neutrophils (in words)” value was “completely inactive”.

Consider `NNC(=O)c1cnn2c1NC(c1ccccc1)C2` (centres unmarked) [compound 12, 2-Phenyl-2,3-dihydro-1H-imidazo[1,2-b]pyrazole-7-carbohydrazide], for which the “activity towards ROS production in platelets (in words)” value in the series with human platelets [2] was “completely inactive”. Also, in the series with human neutrophils [3], the “activity towards ROS production in neutrophils (in words)” value is “completely inactive”.
